Experimental data from article PMC4273943 (Molecular microbiology, 2011).

Molecular target: CRP homolog RC1_3788 (CgrA) (Rhodospirillum centenum, UniProt B6IXV7)
Assay: isothermal titration calorimetry
Type: binding

Kd: 38.5 nM
SMILES: Nc1nc2c(ncn2[C@@H]2O[C@@H]3COP(=O)(O)O[C@H]3[C@H]2O)c(=O)[nH]1 [cGMP]
